Experimental findings from ChEMBL document CHEMBL2424645, “Phosphorylated ganciclovir derivatives: design, synthesis and in vitro and in vivo immunomodulatory activity” (Med Chem Res, 2013) are described below.

Each structure is given as a SMILES string. The source made the active and inactive calls. No cut-off for these calls is given here.

The nature of series [1]: Toxicity in Wistar albino rat. Format: organism-based. The settings on record: in vivo.
Series [2] concerns Rattus norvegicus. Put plainly: Immunomodulatory activity in high fat diet-induced obese Wistar albino rat impaired immune model assessed as CRP level at 8 mg/kg, po after 8 weeks by ELISA relative to high fat-diet fed rat with immune dysfunction. The format is functional. (In general: ELISA stands for enzyme-linked immunosorbent assay.)
Series [3] relates to Rattus norvegicus. Kind of series: Immunomodulatory activity in high fat diet-induced obese Wistar albino rat impaired immune model assessed as IL-1 level at 8 mg/kg, po after 8 weeks by ELISA relative to relative to high fat-diet fed rat with immune dysfunction. The format is functional.
In series [4] the test system is Rattus norvegicus. Put plainly: Immunomodulatory activity in high fat diet-induced obese Wistar albino rat impaired immune model assessed as IL-6 level at 8 mg/kg, po after 8 weeks by ELISA relative to vehicle-treated control. Format: functional.
Series [5] concerns Rattus norvegicus. Kind of series: Immunomodulatory activity in high fat diet-induced obese Wistar albino rat impaired immune model assessed as TNF-alpha level at 8 mg/kg, po after 8 weeks by ELISA relative to vehicle-treated control. The format is functional.
In series [6] the test system is Rattus norvegicus. Put plainly: Immunomodulatory activity in high fat diet-induced obese Wistar albino rat impaired immune model assessed as decrease in total monocytes count at 8 mg/kg, po after 8 weeks by hematology analyser relative to control. The format is functional, organism-based. Details: dose 8 mg/kg.
For series [7], the system named is Rattus norvegicus. Put plainly: Immunomodulatory activity in high fat diet-induced obese Wistar albino rat impaired immune model assessed as decrease in total neutrophils count at 8 mg/kg, po after 8 weeks by hematology analyser relative to control. Format: functional, organism-based. Details: dose 8 mg/kg.
Series [8] concerns Rattus norvegicus. Put plainly: Immunomodulatory activity in high fat diet-induced obese Wistar albino rat impaired immune model assessed as decrease in total lymphocytes count at 8 mg/kg, po after 8 weeks by hematology analyser relative to control. Set-up: dose 8 mg/kg. Format: functional, organism-based.
The subject of series [9] is Neutrophil. Put plainly: Immunomodulatory activity in human neutrophils assessed as increase in intracellular killing activity at 1000 ug/mL after 20 mins by NBT dye reduction assay relative to control. The format is functional. Set-up: scale not given: the % may be the effect or the level left.
In series [10] the test system is Neutrophil. Put plainly: Immunomodulatory activity in human neutrophils assessed as increase in intracellular killing activity at 100 ug/mL after 20 mins by NBT dye reduction assay relative to control. The format is functional. Details: scale not given: the % may be the effect or the level left.
The test system of series [11] is Neutrophil. Kind of series: Immunomodulatory activity in human neutrophils assessed as increase in intracellular killing activity at 40 ug/mL after 20 mins by NBT dye reduction assay relative to control. Format: functional. Details: scale not given: the % may be the effect or the level left.
The subject of series [12] is Neutrophil. Kind of series: Immunomodulatory activity in human neutrophils assessed as increase in intracellular killing activity at 10 ug/mL after 20 mins by NBT dye reduction assay relative to control. Format: functional. Details: scale not given: the % may be the effect or the level left.
Series [13] deals with Neutrophil. Put plainly: Immunomodulatory activity in human neutrophils assessed as increase in intracellular killing activity at 20 ug/mL after 20 mins by NBT dye reduction assay relative to control. Format: functional. Details: scale not given: the % may be the effect or the level left.

In [1], `COC(=O)C(NCP1(=O)OCC(OCn2cnc3c(=O)[nH]c(N)nc32)CO1)C(C)C` (stereo not given) had an LD50 of 80 mg/kg. Further, the Activity in the series with Rattus norvegicus [2] came out at 22.3 ng/mL; in the series with Rattus norvegicus [3], 123.6 pg/mL; with Rattus norvegicus [4], 5.4 pg/mL; in the series on Rattus norvegicus [5], 37.1 pg/mL; in the series with Neutrophil [9], 65.14%; in the series with Neutrophil [10], 62.45%. Further, the Activity amounted to 60.83% in the series on Neutrophil [11], 41.18% in the series on Neutrophil [12] and 55.09% in the series on Neutrophil [13]. The outcome with Rattus norvegicus [6], in the series with Rattus norvegicus [7] and in the series on Rattus norvegicus [8] was Active.
`Nc1nc2c(ncn2COC2COP(=O)(CSCCO)OC2)c(=O)[nH]1` (stereo not given) gave an LD50 in series [1] of 80 mg/kg. For the same molecule, the outcome in the series with Rattus norvegicus [2], with Rattus norvegicus [3], in the series on Rattus norvegicus [4] and with Rattus norvegicus [5] was inactive. The Activity in the series with Neutrophil [9] stood at 55.35%; in the series with Neutrophil [10], 52.15%; in the series with Neutrophil [11] it was 47.93%; in the series on Neutrophil [12], 32.25%; in the series with Neutrophil [13], 43.73%.
In series [1], `CCOC(=O)C(N)CSCP1(=O)OCC(OCn2cnc3c(=O)[nH]c(N)nc32)CO1` (stereo not given) gave a 50% lethal dose (LD50) of 80 mg/kg. For the same molecule, the Activity in the series with Rattus norvegicus [2] is 21.9 ng/mL; in the series with Rattus norvegicus [3] it was 122.9 pg/mL; with Rattus norvegicus [4], 5.2 pg/mL; in the series on Rattus norvegicus [5] it was 36.5 pg/mL; in the series on Neutrophil [9], 66.82%; with Neutrophil [10], 60.16%. In addition, the figures for the Activity in the series on Neutrophil [11], in the series on Neutrophil [12] and in the series on Neutrophil [13] were 58.04%, 45.03% and 56.34%, respectively. Also, the result in the series on Rattus norvegicus [6], in the series on Rattus norvegicus [7] and in the series on Rattus norvegicus [8] was Active.
In [1], `Nc1nc2c(ncn2COC2COP(=O)(COCCO)OC2)c(=O)[nH]1` (stereo not given) displayed a median lethal dose (LD50) of 80 mg/kg. In addition, the outcome with Rattus norvegicus [2], in the series on Rattus norvegicus [3], in the series on Rattus norvegicus [4] and with Rattus norvegicus [5] was inactive. The Activity in the series on Neutrophil [9] was 53.02%; in the series on Neutrophil [10], 51.23%; in the series on Neutrophil [11], 49.85%; with Neutrophil [12] it was 34.31%; in the series with Neutrophil [13], 46.44%.
`CCC(CO)NCP1(=O)OCC(OCn2cnc3c(=O)[nH]c(N)nc32)CO1` (stereo not given) displayed an LD50 in [1] of 80 mg/kg. Also, the outcome in the series on Rattus norvegicus [2], with Rattus norvegicus [3], in the series on Rattus norvegicus [4] and with Rattus norvegicus [5] was inactive. The Activity was found to be 54.32% with Neutrophil [9]; 53.98% in the series with Neutrophil [10]; 46.76% with Neutrophil [11]; 31.37% in the series on Neutrophil [12]; 43.15% in the series with Neutrophil [13].
`CCOC(=O)C(NCP1(=O)OCC(OCn2cnc3c(=O)[nH]c(N)nc32)CO1)c1ccccc1` (stereo not given): in [1], the LD50 was 80 mg/kg. For the same molecule, the outcome in the series on Rattus norvegicus [2] was inactive. For the same molecule, the Activity is 60.32% with Neutrophil [9]; 52.91% in the series on Neutrophil [10]; 46.63% in the series with Neutrophil [11]; 40.62% with Neutrophil [12]; 43.11% in the series with Neutrophil [13].
In series [1], `CCOC(=O)C(CO)NCP1(=O)OCC(OCn2cnc3c(=O)[nH]c(N)nc32)CO1` (stereo not given) had an LD50 of 80 mg/kg. The result with Rattus norvegicus [2] was inactive. In addition, the Activity came out at 56.02% in the series with Neutrophil [9]; 53.09% with Neutrophil [10]; 48.11% with Neutrophil [11]; 39.8% in the series on Neutrophil [12]; 39.92% in the series with Neutrophil [13].
On to `CCOC(=O)C(NCP1(=O)OCC(OCn2cnc3c(=O)[nH]c(N)nc32)CO1)c1ccc(O)cc1` (stereo not given), for which, in [1], the LD50 is 80 mg/kg. The result with Rattus norvegicus [2] was inactive. For the same molecule, the Activity in the series with Neutrophil [9] was found to be 62.25%; in the series on Neutrophil [10], 52.31%; with Neutrophil [11] it was 49.49%; in the series on Neutrophil [12], 39.58%; in the series on Neutrophil [13], 42.46%.
With `NCCNCP1(=O)OCC(OCn2cnc3c(=O)[nH]c(N)nc32)CO1` (stereo not given), in [1], the LD50 stood at 80 mg/kg. Also, the result with Rattus norvegicus [2], in the series on Rattus norvegicus [3], with Rattus norvegicus [4] and in the series with Rattus norvegicus [5] was inactive. Besides, the Activity with Neutrophil [9] came to 50.46%; in the series on Neutrophil [10] it was 47.3%; with Neutrophil [11], 45.35%; with Neutrophil [12] it was 40.12%; in the series on Neutrophil [13] it was 42.51%.
Molecule `CCOC(=O)C(CC(C)C)NCP1(=O)OCC(OCn2cnc3c(=O)[nH]c(N)nc32)CO1` (stereo not given) showed an LD50 in series [1] of 80 mg/kg. For the same molecule, the outcome with Rattus norvegicus [2] was inactive. The Activity with Neutrophil [9] is on record as 58.03%; with Neutrophil [10], 51.44%; in the series on Neutrophil [11] it was 49.31%; with Neutrophil [12], 39.17%; in the series on Neutrophil [13], 40.92%.
`Nc1nc2c(ncn2COC2COP(=O)(CNCCO)OC2)c(=O)[nH]1` (stereo not given) yielded an LD50 in [1] of 80 mg/kg. The outcome in the series with Rattus norvegicus [2], in the series on Rattus norvegicus [3], with Rattus norvegicus [4] and with Rattus norvegicus [5] was inactive. Also, the Activity was 55.25% with Neutrophil [9]; 50.57% with Neutrophil [10]; 48.54% in the series with Neutrophil [11]; 33.38% in the series with Neutrophil [12]; 45.98% in the series with Neutrophil [13].
Turning to `Nc1nc2c(ncn2COC(CO)CO)c(=O)[nH]1` [GANCICLOVIR], the LD50 in series [1] turned out to be 80 mg/kg. Besides, the Activity in the series with Neutrophil [9] was 60.11%; with Neutrophil [10] it was 58.23%; with Neutrophil [11] it was 55.89%; in the series on Neutrophil [12], 39.43%; in the series on Neutrophil [13], 53.21%.
In the case of `NCCSCP1(=O)OCC(OCn2cnc3c(=O)[nH]c(N)nc32)CO1` (stereo not given), in [1], the LD50 is 80 mg/kg. Further, the outcome in the series with Rattus norvegicus [2], in the series on Rattus norvegicus [3], in the series with Rattus norvegicus [4] and with Rattus norvegicus [5] was inactive. Further, the Activity is 57.91% in the series on Neutrophil [9]; 50.36% with Neutrophil [10]; 49.32% with Neutrophil [11]; 33.77% with Neutrophil [12]; 45.64% in the series on Neutrophil [13].

Usually LD50 stands for the dose at which mortality reaches 50%.
